Earlier results in patent US20060166974A1, “Azabenzoxazoles for the treatment of CNS disorders” (Pfizer Inc., priority 2004, published 2006).

O=C1Cc2cc(CCN3CCN(c4nsc5ccccc45)CC3)c(Cl)cc2N1 [Ziprasidone, 5-[2-[4-(1,2-benzisothiazol-3-yl)piperazin-1-yl]ethyl]-6-chloroindolin-2-one]
half-life (in vivo): 6 to 7 h
protein binding (in vivo): extensive
Oral bioavailability (taken with food): approximately 60%
